# From article PMC6112376, “Comprehensive Analyses and Prioritization of Tox21 10K Chemicals Affecting Mitochondrial Function by in-Depth Mechanistic Studies” (Environmental Health Perspectives, 2018)
# Where two headings read alike, the source gives them in different places.
# How the values were obtained:
# [1] = tested on: hNSC; test: MMP assay in human neural stem cells (hNSC); format: cell-based; details: mean±SD of three experiments
# [2] = tested on: HepG2 cells; test: Intracellular ATP content (cell viability) assay; format: cell-based, human; details: for IC50: 40 h treatment, mean±SD of three experiments
# [3] = tested on: p53 (p53-bla HCT-116 cells); test: p53 β-lactamase reporter gene assay; format: cell-based, human; details: 16 h incubation; mean±SD of three experiments
# [4] = tested on: rat primary hepatocytes; test: MMP assay in rat primary hepatocytes
# [5] = tested on: HepG2 cells
# [6] = tested on: HepG2 cells; test: ROS-Glo hydrogen peroxide (ROS) assay; format: cell-based, human; details: 2 h treatment; mean±SD of three experiments
# [7] = tested on: Nrf2/ARE (ARE-bla HepG2 cells); test: ARE β-lactamase reporter gene assay; format: cell-based, human
# [8] = tested on: Caenorhabditis elegans strain PE255; test: In vivo C. elegans ATP status assay
# [9] = tested on: HepG2 cells; details: cited from earlier work
# [10] = tested on: HepG2 cells; test: Oxygen consumption, Seahorse XF24 analyzer; format: cell-based, human
# [11] = tested on: mitochondrial respiratory chain complex III; format: biochemical, rat
# [12] = tested on: Caenorhabditis elegans (Bristol N2); test: C. elegans larval development and growth assay
# [13] = tested on: mitochondrial respiratory chain complex I; format: biochemical, rat
# [14] = tested on: mitochondrial respiratory chain complex V; format: biochemical, rat
# [15] = biological target: T1, mitochondrial respiratory chain complex II (Rattus norvegicus, UniProt P21913+Q641Z9+Q6PCT8+Q920L2); test: Respiratory chain complex II activity; format: biochemical; details: tested up to 100μM
# T1 construct: Submitochondrial particles were prepared by subjecting the intact rat mitochondria, isolated as described above, to three successive freeze–thaw cycles; from tissue; host or cells: rat liver mitochondria (submitochondrial particles)
# [16] = tested on: HeLa cells expressing YFP-Parkin; test: Parkin translocation assay; format: cell-based, human
# [17] = tested on: mitochondrial respiratory chain complex IV; format: biochemical, rat
# [18] = tested on: isolated rat liver mitochondria; test: Oxygen consumption, Clark-type oxygen electrode; format: biochemical; details: for I-ADP, % of control (O2 consumption rate): glutamate/malate driven state 3 respiration; for I-ADP, % of control (O2 consumption rate) / I-sub, % of control (O2 consumption rate) / II-ADP, % of control (O2 consumption rate) / II-sub, % of control (O2 consumption rate): isolated rat liver mitochondria; for I-sub, % of control (O2 consumption rate): glutamate/malate driven state 4 respiration; for II-ADP, % of control (O2 consumption rate): succinate-driven state 3 respiration; for II-sub, % of control (O2 consumption rate): succinate-driven state 4 respiration
# T1 sequence (Q920L2 35-656): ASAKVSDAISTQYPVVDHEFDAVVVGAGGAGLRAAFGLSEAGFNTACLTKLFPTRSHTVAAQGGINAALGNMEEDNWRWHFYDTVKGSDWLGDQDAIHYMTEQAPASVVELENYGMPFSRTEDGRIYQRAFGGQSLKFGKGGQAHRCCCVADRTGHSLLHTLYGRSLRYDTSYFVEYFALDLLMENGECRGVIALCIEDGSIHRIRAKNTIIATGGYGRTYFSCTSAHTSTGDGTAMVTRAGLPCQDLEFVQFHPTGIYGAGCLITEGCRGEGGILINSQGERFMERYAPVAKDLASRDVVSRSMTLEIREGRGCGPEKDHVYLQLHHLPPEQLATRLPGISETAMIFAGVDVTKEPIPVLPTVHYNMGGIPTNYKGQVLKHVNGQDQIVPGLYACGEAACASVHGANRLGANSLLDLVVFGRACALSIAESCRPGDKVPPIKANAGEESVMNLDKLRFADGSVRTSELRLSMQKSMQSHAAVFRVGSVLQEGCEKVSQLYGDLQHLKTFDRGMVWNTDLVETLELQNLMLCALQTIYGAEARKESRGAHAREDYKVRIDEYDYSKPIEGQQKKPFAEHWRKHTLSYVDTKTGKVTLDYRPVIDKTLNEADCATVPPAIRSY
# T1 sequence (P21913 31-282): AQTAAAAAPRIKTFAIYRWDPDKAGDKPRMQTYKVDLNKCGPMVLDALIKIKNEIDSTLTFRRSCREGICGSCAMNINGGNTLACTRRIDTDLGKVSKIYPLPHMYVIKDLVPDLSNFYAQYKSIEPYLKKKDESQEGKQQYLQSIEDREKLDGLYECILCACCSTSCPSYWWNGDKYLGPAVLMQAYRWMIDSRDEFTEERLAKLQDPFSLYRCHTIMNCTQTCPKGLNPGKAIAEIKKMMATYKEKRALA
# T1 sequence (Q641Z9 1-169): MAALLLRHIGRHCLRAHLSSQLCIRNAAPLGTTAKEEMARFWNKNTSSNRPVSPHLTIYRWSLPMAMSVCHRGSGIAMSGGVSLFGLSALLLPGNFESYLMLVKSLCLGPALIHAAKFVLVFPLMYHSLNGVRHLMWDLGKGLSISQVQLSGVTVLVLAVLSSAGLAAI
# T1 sequence (Q6PCT8 57-159): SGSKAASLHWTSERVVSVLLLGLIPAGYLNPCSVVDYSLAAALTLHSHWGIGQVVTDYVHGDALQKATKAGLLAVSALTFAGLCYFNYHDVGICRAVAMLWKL
compound,measurement,setting,value
CCN1C(=CC=Cc2ccc3ccccc3[n+]2CC)C=Cc2ccccc21.[Cl-] [Pinacyanol chloride],IC50,"[1]; 1 h treatment, fresh re-sourced stocks, read-out: hNSC IC50 (MMP)",40 ± 10 nM
same,hNSC (efficacy) (MMP),[1]; % of positive control,−97.1±7.31%
same,IC50,"[2]; 5 mM glucose, read-out: ATP (HepG2, glucose) IC50",10.7 ± 6.39 µM
same,"ATP (HepG2, glucose) (efficacy)","[2]; 5 mM glucose, % of positive control",−107±6.73%
same,IC50,"[2]; 10 mM galactose, read-out: ATP (HepG2, galactose) IC50",5.88 ± 2.33 µM
same,"ATP (HepG2, galactose) (efficacy)","[2]; 10 mM galactose, % of positive control",−105±4.87%
same,p53 (HCT-116) EC50,[3],Inactive
same,Rat hepatocytes (efficacy) (MMP),"[4]; % of positive control, mean±SD of three experiments",−75.4±6.24%
same,MMP assays efficacy (%) Rat Hepatocytes,"[4]; rat hepatocytes, mean ± SD of three experiments",-99±26%
same,IC50,"[4]; read-out: IC50 in rat primary hepatocytes (MMP, tier-one retest), existing Tox21 10K library stock solutions, 1-h treatment, Excel Table S1",40 nM
same,IC50,"[4]; read-out: Rat hepatocytes IC50 (MMP), 1 h treatment, fresh re-sourced stocks, mean±SD of three experiments",310 ± 150 nM
same,HepG2 (efficacy) Glucose (MMP),"[5]; 5 mM glucose, % of positive control, mean±SD of three experiments",−85.9±3.17%
same,HepG2 (efficacy) Galactose (MMP),"[5]; 10 mM galactose, % of positive control, mean±SD of three experiments",−78.9±0.48%
same,MMP assays efficacy (%) HepG2,"[5]; HepG2 cells, single number from one experiment",-89%
same,IC50,"[5]; read-out: HepG2 IC50 Galactose (MMP), 10 mM galactose, no glucose, 1 h treatment, mean±SD of three experiments",0.06 ± 0.02 µM
same,IC50,"[5]; read-out: HepG2 IC50 Glucose (MMP), 5 mM glucose, 1 h treatment, fresh re-sourced stocks, mean±SD of three experiments",0.04 ± 0.01 µM
same,IC50,"[5]; read-out: IC50 in HepG2 cells (MMP, tier-one retest), existing Tox21 10K library stock solutions, Excel Table S1",0.02 µM
same,IC50,"[5]; read-out: MMP assays IC50 (µM) HepG2, HepG2 cells, single number from one experiment",0.0155 µM
same,ROS (HepG2) EC50,[6],Inactive
same,EC50,"[7]; 16 h incubation, mean±SD of three experiments, read-out: ARE (HepG2) EC50",1390 ± 950 nM
same,ARE (HepG2) (efficacy),[7]; % of positive control,62.8±13.4%
same,LUM: mean difference in luminescence (ATP content) relative to plate controls,[8]; 0.005 µM,0.1466
same,LUM: mean difference in luminescence (ATP content) relative to plate controls,[8]; 0.01 µM,0.1001
same,LUM: mean difference in luminescence (ATP content) relative to plate controls,[8]; 0.05 µM,0.1404
same,LUM: mean difference in luminescence (ATP content) relative to plate controls,[8]; 0.1 µM,0.3228
same,LUM: mean difference in luminescence (ATP content) relative to plate controls,[8]; 0.5 µM,1.055
same,LUM: mean difference in luminescence (ATP content) relative to plate controls,[8]; 1 µM,-0.08665
same,LUM: mean difference in luminescence (ATP content) relative to plate controls,[8]; 5 µM,3.898
same,LUM: mean difference in luminescence (ATP content) relative to plate controls,[8]; 10 µM,3.595
same,LUM: mean difference in luminescence (ATP content) relative to plate controls,[8]; 25 µM,3.9673
same,LUM: mean difference in luminescence (ATP content) relative to plate controls,[8]; 50 µM,3.294
same,LUM: mean difference in luminescence (ATP content) relative to plate controls,[8]; 75 µM,3.822
same,LUM: mean difference in luminescence (ATP content) relative to plate controls,[8]; 100 µM,4.216
same,effect on ATP content (in words),"[8]; 0.5–100μM, 24 h exposure",inhibited
same,"LEC LUM: lowest effect concentration for luminescence, a measure of nematode ATP content","[8]; C. elegans ATP, JT trend test, Bonferoni correction p<0.05",0.25 µM
same,MMP assays efficacy (%) qHTS-HepG2,[9],-91±3%
same,IC50,"[9]; read-out: MMP assays IC50 (µM), qHTS-HepG2",0.01 µM
same,"effect on oxygen consumption rate, Seahorse (in words)",[10],inhibitory patterns similar to that of rotenone
same,Activity in oxygen consumption,"[10]; Seahorse XF24, HepG2 cells, 25 mM glucose, 1, 4, 16, and 64μM",Inhibitor
same,Complex III % inhibition (activity call),[11],Inactive
same,EXT: mean difference in nematode size relative to plate controls,[12]; 0.005 µM,0.5663
same,EXT: mean difference in nematode size relative to plate controls,[12]; 0.01 µM,0.679
same,EXT: mean difference in nematode size relative to plate controls,[12]; 0.05 µM,1.058
same,EXT: mean difference in nematode size relative to plate controls,[12]; 0.1 µM,0.8774
same,EXT: mean difference in nematode size relative to plate controls,[12]; 0.5 µM,1.355
same,larval growth effect at 0.5μM,"[12]; 0.5μM, 48 h exposure",severe larval growth arrest
same,EXT: mean difference in nematode size relative to plate controls,[12]; 1 µM,1.41
same,EXT: mean difference in nematode size relative to plate controls,[12]; 5 µM,1.888
same,EXT: mean difference in nematode size relative to plate controls,[12]; 10 µM,1.689
same,EXT: mean difference in nematode size relative to plate controls,[12]; 50 µM,0.7889
same,effect on larval growth (in words),"[12]; 0.5–100μM, 48 h exposure",inhibited
same,"LEC EXT: lowest effect concentration for extinction, a measure of nematode size","[12]; C. elegans larval growth, JT trend test, Bonferoni correction p<0.05",0.005 µM
same,inhibitory effect at (concentration) on larval growth in the C. elegans assay,[12]; quoted in Discussion,0.005 µM
same,inhibition effect on Complex I,[13]; at 4.0μM,23.6%
same,Complex I % inhibition,[13]; at 20μM,38.3±1.92 at 20μM %
same,Complex V % inhibition (activity call),[14],Inactive
same,Complex II % inhibition (activity call),[15],Inactive
same,Parkin translocation into mitochondria (in words),[16]; 3 h,patterns similar to antimycin A and FCCP
same,Parkin recruitment,"[16]; HeLa cells stably expressing YFP-Parkin, treated for 2 h",Active
same,Complex IV % inhibition (activity call),[17],Inactive
same,"I-ADP, % of control (O2 consumption rate)",[18]; 0.8 µM,88 (40.4) % of control
same,"I-sub, % of control (O2 consumption rate)",[18]; 0.8 µM,113 (12.6) % of control
same,"II-ADP, % of control (O2 consumption rate)",[18]; 0.8 µM,81 (60.9) % of control
same,"II-sub, % of control (O2 consumption rate)",[18]; 0.8 µM,103 (21.3) % of control
same,"I-ADP, % of control (O2 consumption rate)",[18]; 4 µM,57 (26.1) % of control
same,"I-sub, % of control (O2 consumption rate)",[18]; 4 µM,108 (12.1) % of control
same,"II-ADP, % of control (O2 consumption rate)",[18]; 4 µM,56 (42.3) % of control
same,"II-sub, % of control (O2 consumption rate)",[18]; 4 µM,79 (16.2) % of control
same,"I-ADP, % of control (O2 consumption rate)",[18]; 20 µM,31 (14.2) % of control
same,"I-sub, % of control (O2 consumption rate)",[18]; 20 µM,69 (7.7) % of control
same,"II-ADP, % of control (O2 consumption rate)",[18]; 20 µM,35 (26.2) % of control
same,"II-sub, % of control (O2 consumption rate)",[18]; 20 µM,69 (14.3) % of control
same,"I-ADP, % of control (O2 consumption rate)",[18]; 100 µM,21 (9.7) % of control
same,"I-sub, % of control (O2 consumption rate)",[18]; 100 µM,76 (11.8) % of control
same,"II-ADP, % of control (O2 consumption rate)",[18]; 100 µM,11 (7.6) % of control
same,"II-sub, % of control (O2 consumption rate)",[18]; 100 µM,27 (8.5) % of control
same,effect on mitochondrial respiration (in words),"[18]; Clark-type oxygen electrode, concentrations up to 100μM",slightly milder inhibitory effects on both glutamate/malate-driven respiration and succinate-driven respiration
same,Potential Mechanism,"[18]; mitochondrial respiration in isolated rat liver mitochondria, Clark type oxygen electrode, over tested concentrations",Inhibitor
